Test results: patent US8957106B2, “Iminosugar treatment of tumors” (The Chancellor, Masters and Scholars of the University of …, priority 2007, dated 2015)
pIC50: −log10 of the molar value.

Legend:
B16F10 cells [1] = assay: Annexin V/PI double labeling, flow cytometry, B16F10; type: cell-based, murine; conditions: B16F10, 6 μM
Method: Apoptosis in GC2-treated melanoma cells was detected using Annexin V and PI double labeling assay, see van Engeland, M., et al., Cytometry, 31, 1-9, 1998. Annexin V/PI labeling was applied to both fluorescence microscopy and flow cytometry following the protocol supplied by the manufacturer. Briefly, for fluorescence microscopy analysis adherent cells (approximately 16×10^4) treated with GC2 were washed with annexin V binding buffer, and incubated with Alexa Fluor® 488 Annexin V (5 μl in 1 ml annexin V binding buffer) for 15 min at RT, in the dark, to which 0.2 μg PI was added. Live cells were washed with annexin V binding buffer and examined by microscopy. For flow cytometric analysis, cells treated with GC2 were harvested by trypsinisation and a number of viable cells was counted. 16×10^4 cells were re-suspended in 0.2 ml annexin V binding buffer and treated in the same were adherent cells. Finally, labeled cells were analyzed with a FACScan™ using CellQuest™ software (Becton Dickinson, San Jose, Calif.).
Cells cultured under normal conditions for 24 h were further treated for 5 h, 8 h or 24 h with 6 μM of GC2, labeled with annexin V and PI and quantitatively analyzed by flow cytometry for viable, apoptotic and necrotic populations (FIG. 7).

B16F10 cells [2] = assay: Growth rate by Trypan blue exclusion, drug scheduling and progenies; type: cell-based, murine
Method: (§1) The standard methanethiosulfonate (MTS)-3-(4,5-dimethylthiazol-2-yl)-5-(3-carboxymethoxyphenyl)-2-(4-sulphophenyl)-2H-tetrazolium inner salt solution assay was performed in order to examine the cytotoxic/cytostatic effect of GC2 on melanoma cells. Briefly, 7.5×10^3 cells were seeded in 96-well microtiter plates (Nunc). After an overnight incubation, serial dilutions of GC2 or DTIC were added in triplicate to a final volume of 100 μl. The blank was represented by a culture medium without cells containing the highest GC2 or DTIC concentration. After 24 h of incubation 20 μl MTS was added to each well and all samples were incubated for 3 h at 37° C. An absorbance of each well was read at 450 nm in a microplate reader. A percentage of cell viability was calculated considering that 100% cell viability was represented by an absorbance of untreated samples (blank absorbance). Alternatively, the number of viable cells was determined by Trypan blue exclusion test. Melanoma cells treated with GC2 were trypsinized and cells negative for blue staining (viable cells) were counted using a hemocytometer.
In order to be successful, chemotherapy schedule can be set based on a type of targeted cells, a rate, at which the cells divide, and a time, at which a given drug is likely to be effective. Melanoma cells have versatile mechanisms to survive treatments with most chemotherapeutical drugs. Whether a specific scheduling of GC2 therapy is important was investigated by studying how a growth rate of melanoma cells is affected by incubation with a single dose of GC2 for a prolonged time period and with multiple GC2 doses freshly added every 24 h. Because of its high proliferation rate, a metastatic cell line B16F10 was selected for these experiments. The cells were cultured for 72 h under the following conditions: 1) in the absence of GC2 (control sample-C), 2) with a single GC2 dose of 6.0 μM (sample-S), and 3) with multiple GC2 doses of 6.0 μM freshly added every 24 h ([…]). A number of viable cells was determined by Trypan blue exclusion test and a growth rate was calculated in order to estimate an anti-proliferative effect of GC2. Under normal drug-free conditions, B16F10 cells approximately double their number every 24 h (FIG. 4A). Incubation with a single dose of GC2 decreased the growth rate from 2.29 to 1.26 for 24 h incubation and from 7.26 to 3.7 for 72 h incubation. […] Cells treated with GC2 freshly added every 24 h had the lowest growth rate of 2.02.
Equal numbers of B16F10 cells previously cultured for 72 h 1) without GC2 (C), 2) in the presence of a single GC2 dose of 6 μM (S) or 3) multiple GC2 doses of 6 μM freshly added every 24 h (S*) were further incubated either without GC2 (0 μM) or with a lower GC2 concentration (3 μM). At the end of a 48 h incubation period a number of viable cells was determined by Trypan blue exclusion test and a percentage of cell growth was calculated considering a cell number cultured with 3 μM of GC2 for 48 h to be 100%. Cells cultured with a single dose of GC2 for 72 h followed by 48 h without the drug proliferated at a rate of 99%. The rate decreased to 70% after the additional 48 h incubation of these cells in the presence of 3 μM GC2 (FIG. 4C). […] The lowest growth rate, (5%) was registered for the cells previously exposed to multiple doses of freshly added drug for 72 h and then further grown for 48 h in the presence of 3 μM GC2.

MNT-1 melanoma cells = assay: MTS cell viability assay, MNT-1; type: cell-based; conditions: Homo sapiens, MNT-1, 24 h, read-out: IC50 (concentration reducing number of viable cells by 50%)
Method: (§2) Cells were cultured at indicated densities for 24 h, medium was removed and the incubation was continued in a fresh culture medium containing various GC2 or DTIC concentrations. In control experiments, cells were grown in a culture medium containing GC2 buffer.
as §1, with “hemocytometer. […]” for “hemocytometer.”

B16F10 melanoma cells = assay: MTS cell viability assay, B16F10; type: cell-based, murine; conditions: Mus musculus, B16-F10, B16F10, 24 h, read-out: IC50 (concentration reducing number of viable cells by 50%)
Method: as §2
as §1, with “hemocytometer. […]” for “hemocytometer.”

- pIC50 (MNT-1 melanoma cells): 5.10 to 5.15
- pIC50 (B16F10 melanoma cells): 5.10 to 5.15
SMILES: CC(=O)O.CCCCCCCCCN1[C@@H](CO)[C@@H](O)[C@H](O)[C@@H]1CCCCCCCC [GC2, (2S,3R,4R,5S)-3,4-dihydroxy-N-nonyl-5-octyl-2 hydroxymethylpyrrolidinium acetate]
- number of viable, apoptotic or necrotic cells (B16F10 cells [1]; 5 h): did not change significantly
- increase of apoptotic cells versus control (factor) (B16F10 cells [1]; 8 h): 1.7
- increase of necrotic fraction versus control (B16F10 cells [1]; 8 h): approximately doubled
- apoptotic cells (B16F10 cells [1]; 8 h, control 1.95%): 3.44%
- necrotic fraction (B16F10 cells [1]; 8 h, control 4.28%): 8.78%
- increase of apoptotic cells versus control (factor) (B16F10 cells [1]; 24 h): 2.9
- increase of necrotic fraction versus control (factor) (B16F10 cells [1]; 24 h): 4.4
- apoptotic cells (B16F10 cells [1]; 24 h, control 2.28%): 6.72%
- necrotic fraction (B16F10 cells [1]; 24 h, control 4.95%): 22.16%
- activity at 3 µM (B16F10 cells [2]; Mus musculus, B16-F10, multiple 6 μM doses 72 h, then 48 h with 3 μM GC2, read-out: growth rate of progenies (% of control growth)): 5%
- activity at 6 µM (B16F10 cells [2]; Mus musculus, B16-F10, single 6 μM dose 72 h, then 48 h without drug, read-out: proliferation rate of progenies (% of control growth)): 99%
- proliferation rate of progenies (% of control growth) (B16F10 cells [2]; multiple 6 μM doses 72 h, then 48 h without drug): 43%
- growth rate (ratio of cell number to initial cell number) (B16F10 cells [2]; multiple 6.0 μM doses freshly added every 24 h, 72 h, control 7.26): 2.02
- proliferation rate of progenies (% of control growth) (B16F10 cells [2]; single 6 μM dose 72 h, then 48 h with 3 μM GC2): 70%
- growth rate (ratio of cell number to initial cell number) (B16F10 cells [2]; single dose 6.0 μM, 24 h incubation, control 2.29): 1.26
- growth rate (ratio of cell number to initial cell number) (B16F10 cells [2]; single dose 6.0 μM, 72 h incubation, control 7.26): 3.7
